A short description of assay [1]: Inhibition of recombinant wildtype N-terminus SYYHHHHHH-tagged human fructose 1,6-bisphosphatase extracted from Escherichia coli BL21 (DE3) cells using fructose1,6-bisphosphate as substrate assessed as NADP+ reduction to NADPH in presence of NADP+, PGI and G6PDH by spectrophotometric analysis.
The target in assay [2] is Fructose-1,6-bisphosphatase 1 (Homo sapiens, UniProt P09467, C129S). As to the kind of experiment: Inhibition of N-terminus SYYHHHHHH-tagged human fructose 1,6-bisphosphatase C128S mutant extracted from Escherichia coli BL21 (DE3) cells using fructose1,6-bisphosphate as substrate assessed as NADP+ reduction to NADPH in presence of NADP+, PGI and G6PDH by spectrophotometric analysis.

Assay [3] is filed under the species Homo sapiens. As to the kind of experiment: Selectivity ratio of IC50 for inhibition of N-terminus SYYHHHHHH-tagged human fructose 1,6-bisphosphatase C128S mutant extracted from Escherichia coli BL21 (DE3) cells to IC50 for inhibition of wildtype N-terminus SYYHHHHHH-tagged human fructose 1,6-bisphosphatase extracted from Escherichia coli BL21 (DE3) cells.
The target of assay [4] is Fructose-1,6-bisphosphatase 1 (Homo sapiens, UniProt P09467, C180S). Description: Inhibition of N-terminus SYYHHHHHH-tagged human fructose 1,6-bisphosphatase C179S mutant extracted from Escherichia coli BL21 (DE3) cells using fructose1,6-bisphosphate as substrate assessed as NADP+ reduction to NADPH in presence of NADP+, PGI and G6PDH by spectrophotometric analysis.
The species named for assay [5] is Homo sapiens. As to the kind of experiment: Selectivity ratio of IC50 for inhibition of N-terminus SYYHHHHHH-tagged human fructose 1,6-bisphosphatase C179S mutant extracted from Escherichia coli BL21 (DE3) cells to IC50 for inhibition of wildtype N-terminus SYYHHHHHH-tagged human fructose 1,6-bisphosphatase extracted from Escherichia coli BL21 (DE3) cells.
In assay [6] the test system is Mus musculus. Description: Antidiabetic activity in db/db mouse model assessed as reduction in blood glucose level at 250 mg/kg, ip preadministered with compound for 8 hrs followed by free feeding and measured after 16 hrs by glucometer. In kind it is functional, organism-based. The settings on record: time 24.0 hrs.

Molecules are shown by their SMILES. Active and inactive are the calls of the source. The rule behind the calls is not given here. Where only a bound is given, the exact number is not on record here.

Chain of Fructose-1,6-bisphosphatase 1 (Homo sapiens, UniProt P09467, C129S) (P09467 2-338 C129S limits assumed): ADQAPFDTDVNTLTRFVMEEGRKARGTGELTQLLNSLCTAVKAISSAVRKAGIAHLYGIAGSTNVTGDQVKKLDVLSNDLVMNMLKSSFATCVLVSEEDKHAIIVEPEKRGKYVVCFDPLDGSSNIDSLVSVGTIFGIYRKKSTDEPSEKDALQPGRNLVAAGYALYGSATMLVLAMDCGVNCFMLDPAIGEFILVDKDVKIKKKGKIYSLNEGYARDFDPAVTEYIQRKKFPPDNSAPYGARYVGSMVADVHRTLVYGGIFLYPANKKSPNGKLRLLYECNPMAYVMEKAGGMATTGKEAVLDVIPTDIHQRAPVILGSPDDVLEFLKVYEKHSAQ
Chain of Fructose-1,6-bisphosphatase 1 (Homo sapiens, UniProt P09467, C180S) (P09467 2-338 C180S limits assumed): as the sequence (P09467 2-338 C129S limits assumed) above, with S128C, C179S counted along it

As to `Cc1cc(NC(=O)NS(=O)(=O)c2ccc(CCNC(=O)CBr)cc2)no1`, in assay [1], the IC50 (usually the concentration at which inhibition is half-maximal) came to 13.3 µM.
Same read-out and setting: for `C#Cc1cccc(NC(=O)NS(=O)(=O)c2ccc(CCNC(=O)CBr)cc2)c1` the value was 2.93 µM; for `O=C(CBr)NCCc1ccc(S(=O)(=O)NC(=O)Nc2ccc3scnc3c2)cc1`, 2.94 µM.
Consider `O=C(CCl)NCCc1ccc(S(=O)(=O)NC(=O)Nc2cccc(Br)c2)cc1`, for which the IC50 in assay [1] was 36.2 µM.
`CC(C)(C)c1ccc(NC(=O)NS(=O)(=O)c2ccc(CCNC(=O)CBr)cc2)cc1`: the IC50 in assay [1] amounted to 8.04 µM.
Consider `O=C(CBr)NCCc1ccc(S(=O)(=O)NC(=O)Nc2ccc([N+](=O)[O-])cc2)cc1`, for which the IC50 in assay [1] is 19.3 µM.
For the compound `C=CC(=O)NCCc1ccc(S(=O)(=O)NC(=O)Nc2cccc(Br)c2)cc1`, the IC50 in assay [1] was over 500 µM.
The same measure, in the same setting: the figure for `O=C(CBr)NCc1ccc(S(=O)(=O)NC(=O)Nc2cccc(Br)c2)cc1` is 4.51 µM.
With `O=C(Nc1cccc(Br)c1)NS(=O)(=O)c1ccc(NC(=O)c2ccc(Cl)nc2)cc1`, the 50% inhibitory concentration (IC50) in assay [2] stood at 71.8 µM; in assay [4] it was 7.83 µM; in assay [1], 3.55 µM. The values for the Ratio IC50 in assay [3] and in assay [5] were 20 and 2.2, respectively.
As for `O=C(CBr)NCCc1ccc(S(=O)(=O)NC(=O)Nc2ccc(F)cc2)cc1`, the IC50 in assay [1] came to 3.94 µM.
Consider `COc1ccc(NC(=O)NS(=O)(=O)c2ccc(CCNC(=O)CBr)cc2)cc1`, for which, in assay [1], the IC50 came to 4.54 µM.
In the case of `O=C(CBr)NCCc1ccc(S(=O)(=O)NC(=O)Nc2ccc3c(c2)OCCO3)cc1`, the IC50 in assay [1] stood at 5.38 µM.
Regarding `CN(C)C(=N)NC(=N)N`, in assay [6], the result was inactive.
For the compound `O=C(CBr)NCCc1ccc(S(=O)(=O)NC(=O)Nc2ccc(I)cc2)cc1`, the IC50 in assay [1] is 3.05 µM.
Turning to `N#Cc1ccc(C(=O)Nc2ccc(S(=O)(=O)NC(=O)Nc3cccc(Br)c3)cc2)cc1`, the IC50 in assay [1] was 14.8 µM.
On the same count and under the same terms, for `C#Cc1ccc(NC(=O)c2ccc(S(=O)(=O)NC(=O)Nc3cccc(Br)c3)cc2)cc1` the value was over 500 µM.

These data come from ChEMBL document CHEMBL6127127, “Structure-Guided Design of Affinity/Covalent-Bond Dual-Driven Inhibitors Targeting the AMP Site of FBPase” (J Med Chem, 2024).
